Inhibition and IC50 data for 22 molecules are collected here from ChEMBL document CHEMBL5375999, “Discovery of a Dual Tubulin and Neuropilin-1 (NRP1) Inhibitor with Potent In Vivo Anti-Tumor Activity via Pharmacophore-based Docking Screening, Structure Optimization, and Biological Evaluation” (J Med Chem, 2023).

Activity calls are given as the source filed them. The calls are words filed in the database; no cut-off is given here.

For series [1], the target named is Tubulin (Homo sapiens) (UniProt P68371+Q9H4B7+P0DPH7+P68366+Q13509+Q71U36+P04350+Q3ZCM7+P07437+P68363+Q9BQE3+Q6PEY2+Q13885+Q9BVA1+Q9BUF5). Nature of the series: Inhibition of tubulin polymerization (unknown origin) at 12 uM by spectrophotometric analysis relative to control. In kind it is protein-complex assay.
The target of series [2] is Neuropilin-1 (Homo sapiens) (UniProt O14786). Briefly: Inhibition of [125I]-VEGF-A165 binding to NRP1 (unknown origin) transfected in HUVECs incubated for 2 hrs by plate reader analysis. The note with it: HUVEC.
Target sequence in this assay (O14786 whole entry, looked up): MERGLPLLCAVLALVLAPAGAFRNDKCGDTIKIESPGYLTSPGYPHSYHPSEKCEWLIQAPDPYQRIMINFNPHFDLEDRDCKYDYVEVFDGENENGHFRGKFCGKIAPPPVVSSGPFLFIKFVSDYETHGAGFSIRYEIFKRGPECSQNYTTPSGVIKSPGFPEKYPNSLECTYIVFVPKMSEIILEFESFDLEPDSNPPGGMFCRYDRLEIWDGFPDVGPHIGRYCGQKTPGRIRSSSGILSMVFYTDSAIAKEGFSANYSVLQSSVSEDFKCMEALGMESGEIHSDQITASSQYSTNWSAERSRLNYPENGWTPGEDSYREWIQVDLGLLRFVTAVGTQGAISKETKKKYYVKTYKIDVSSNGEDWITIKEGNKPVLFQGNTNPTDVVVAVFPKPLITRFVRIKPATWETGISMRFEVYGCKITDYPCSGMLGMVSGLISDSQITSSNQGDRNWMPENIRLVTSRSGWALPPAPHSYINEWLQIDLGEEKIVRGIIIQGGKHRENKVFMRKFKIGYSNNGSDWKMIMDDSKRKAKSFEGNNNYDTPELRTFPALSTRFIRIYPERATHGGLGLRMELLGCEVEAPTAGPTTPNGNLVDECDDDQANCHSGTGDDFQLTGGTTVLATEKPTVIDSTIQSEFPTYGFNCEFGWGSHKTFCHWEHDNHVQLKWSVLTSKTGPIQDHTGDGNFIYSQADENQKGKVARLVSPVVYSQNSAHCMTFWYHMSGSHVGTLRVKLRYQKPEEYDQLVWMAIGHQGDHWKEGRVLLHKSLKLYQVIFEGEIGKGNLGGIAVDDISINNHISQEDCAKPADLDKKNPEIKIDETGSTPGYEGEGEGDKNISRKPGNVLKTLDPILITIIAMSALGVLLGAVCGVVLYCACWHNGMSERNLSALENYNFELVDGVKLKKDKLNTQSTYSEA
Series [3] addresses Tubulin. Briefly: Inhibition of tubulin polymerization (unknown origin) by spectrophotometric analysis. The series is classed as protein-complex assay, Homo sapiens.
Series [4] concerns the target Neuropilin-1 (Homo sapiens) (UniProt O14786). Briefly: Inhibition of [125I]-VEGF-A165 binding to NRP1 (unknown origin) transfected in HUVECs at 12 uM incubated for 2 hrs by plate reader analysis relative to control. The series is classed as cell-based. The note with it: HUVEC.
Target sequence in this assay (O14786 whole entry): as the sequence (O14786 whole entry, looked up) above
The subject of series [5] is PC-3. Nature of the series: Cytotoxicity against human PC-3 cells assessed as inhibition of cell viability incubated for 48 hrs by MTT assay. The series is classed as functional, cell-based. The note with it: PC-3, 48 h.
Series [6] in a line: Cytotoxicity against human PrEC cells assessed as inhibition of cell viability incubated for 48 hrs by MTT assay. In kind it is toxicity, cell-based.

In series [1], `COc1cc(-c2cc(-n3c(S)nc4ccccc4c3=O)[nH]n2)cc(OC)c1OC` came in with an inhibition of 28%.

Turning to `COC(=O)[C@H](CCCNC(=N)N)NC(=O)CCCCC(=O)Nc1cc(/C=C\c2cc(OC)c(OC)c(OC)c2)ccc1OC`, the inhibition result in series [2] was “inactive”. This molecule also returned an IC50 in series [3] of 9.34 µM.

As to `COC(=O)[C@H](CCCNC(=N)N)NC(=O)CCCC(=O)Nc1cc(/C=C\c2cc(OC)c(OC)c(OC)c2)ccc1OC`, the inhibition entry in series [2] is “inactive”. Besides, the IC50 in series [3] came to 7.96 µM.

`Cc1ccc(S(=O)(=O)N[C@@H](CCCNC(=N)N)C(=O)O)cc1`: in series [4], the inhibition amounted to 82%.

Turning to `COc1cc(C(O)c2cc3c(cc2CO)OCO3)cc(OC)c1OC` (stereo not drawn), the inhibition in series [1] stood at 64%; in series [4], 47%.

`N=C(N)NCC(C[C@H](NCc1ccccc1)C(=O)O)[N+](=O)[O-]` (stereo partly drawn): the inhibition in series [4] amounted to 60%.

In turn, `COc1cc2c(cc1OC)C(c1cc(OC)c(OC)c(OC)c1)OCC2` (stereo not drawn) had an inhibition in series [1] of 69%.

Take `COC(=O)[C@H](CCCNC(=N)N)NC(=O)/C=C/C(=O)Nc1cc(/C=C\c2cc(OC)c(OC)c(OC)c2)ccc1OC`: the inhibition entry in series [2] is “inactive”. Moreover, the IC50 in series [3] came out at 4.14 µM.

As to `COc1ccc(/C=C\c2cc(OC)c(OC)c(OC)c2)cc1NC(=O)CCCCC(=O)N[C@@H](CCCNC(=N)N)C(=O)O`, half-maximal inhibition in series [3] (IC50) required 7.15 µM.

Molecule `N=C(N)NCCC[C@H](NC(=O)c1sccc1NS(=O)(=O)c1cccc2nsnc12)C(=O)O` came in with an inhibition in series [4] of 87%.

The molecule `COc1cc([C@@H]2CC(=O)c3cnc(N4CCN(CCO)CC4)nc3C2)cc(OC)c1OC` returned an inhibition in series [1] of 48%.

Molecule `COc1cc(C2OC2C(=O)c2ccccc2)cc(OC)c1OC` (stereo not drawn) came in with an inhibition in series [1] of 15%.

Molecule `COc1cc(C(=O)/C=C/c2c[nH]c3ccc(Br)cc23)cc(OC)c1OC` showed an inhibition in series [1] of 63%.

In the case of `COc1cc(C(=O)/C=C/Nc2cccc(C)c2)cc(OC)c1OC`, the inhibition in series [1] was 45%.

The molecule `COc1cc(O)c(/C=C/C(=O)c2cc(OC)c(OC)c(OC)c2)c(OC)c1` gave an inhibition in series [1] of 71%.

Take `COc1ccc2c(c1)OC(c1cc(OC)c(OC)c(OC)c1)CC2=O` (stereo not drawn): the inhibition in series [1] was found to be 52%.

`N=C(N)NCCC[C@H](NC(=O)c1ccccc1)C(=O)O`: the inhibition in series [4] is 79%.

As for `COC(=O)[C@H](CCCNC(=N)N)NC(=O)CCCCCCC(=O)Nc1cc(/C=C\c2cc(OC)c(OC)c(OC)c2)ccc1OC`, in series [2], the inhibition result was “inactive”.

`COc1ccc(/C=C\c2cc(OC)c(OC)c(OC)c2)cc1NC(=O)CCCC(=O)N[C@@H](CCCNC(=N)N)C(=O)O` registered an IC50 in series [3] of 5.57 µM.

Take `COc1cc(-c2cc(C(F)(F)F)n3ncc(C(=O)NCC(C)C)c3n2)cc(OC)c1OC`: the inhibition in series [1] turned out to be 21%.

As to `COc1ccc(/C=C\c2cc(OC)c(OC)c(OC)c2)cc1O` [COMBRETASTATIN A4], the IC50 in series [5] came to 60 nM. Besides, the inhibition entry in series [2] was “inactive”. Also, in series [6], the IC50 at 48 h amounted to 80 nM.

With `COc1ccc(/C=C\c2cc(OC)c(OC)c(OC)c2)cc1NC(=O)/C=C/C(=O)N[C@@H](CCCNC(=N)N)C(=O)O`, in series [3], 1.53 µM corresponded to half-maximal inhibition (IC50).
